The values below come from ChEMBL document CHEMBL1201862, “PubChem BioAssay data set” (2004).

The source made the active and inactive calls.

Data set [1] deals with Eukaryotic translation initiation factor 4E (Mus musculus, UniProt P63073). The experiment in a line: eIF4E–eIF4G protein interaction inhibitors, dose response, biochemical, TR-FRET (AID 855).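 Note: potency for disrupting eIF4E binding to eIF4GI seen as loss of FRET.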 In kind it is functional.
Data set [2] addresses T1, Protein skinhead-1 (Caenorhabditis elegans, UniProt P34707).
T1 sequence (P34707 whole entry): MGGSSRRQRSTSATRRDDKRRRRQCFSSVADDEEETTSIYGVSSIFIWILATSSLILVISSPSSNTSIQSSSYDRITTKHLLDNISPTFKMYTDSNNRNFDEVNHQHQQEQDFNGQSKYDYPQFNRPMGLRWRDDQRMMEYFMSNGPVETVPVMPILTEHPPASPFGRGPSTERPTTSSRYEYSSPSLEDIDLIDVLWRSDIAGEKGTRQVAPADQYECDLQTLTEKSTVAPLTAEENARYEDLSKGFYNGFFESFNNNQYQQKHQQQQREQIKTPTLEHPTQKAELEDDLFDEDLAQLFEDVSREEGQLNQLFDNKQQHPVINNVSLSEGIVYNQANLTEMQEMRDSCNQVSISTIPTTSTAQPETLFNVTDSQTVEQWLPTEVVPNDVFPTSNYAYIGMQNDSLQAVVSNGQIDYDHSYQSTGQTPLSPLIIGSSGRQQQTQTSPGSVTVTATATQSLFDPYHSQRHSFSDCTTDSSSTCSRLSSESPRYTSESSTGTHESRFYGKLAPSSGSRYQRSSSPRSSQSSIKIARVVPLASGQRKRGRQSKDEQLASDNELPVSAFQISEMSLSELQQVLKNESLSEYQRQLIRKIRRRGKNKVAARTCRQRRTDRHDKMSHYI
Type of data set: functional.

In data set [3] the target is DNA dC->dU-editing enzyme APOBEC-3G (Homo sapiens, UniProt Q9HC16). Kind of data set: Dose Response confirmation of small molecule APOBEC3G DNA Deaminase Inhibitors via a fluorescence-based single-stranded DNA deaminase assay. [Related pubchem assays (depositor defined):AID493012, AID493028]. In kind it is functional.
Data set [4] addresses Large T antigen (Simian virus 40, UniProt P03070). In kind it is functional, Betapolyomavirus macacae.
The target of data set [5] is Genome polyprotein (dengue virus type 2, UniProt P29990). The experiment in a line: Dengue-2 NS5 methyltransferase inhibitors, primary screen, biochemical, confirmation dose response (AID 588689). Type of data set: functional.
For data set [6], the system named is Vero. The experiment in a line: Vero cell cytotoxicity, cytotoxicity control for flavivirus capping enzyme inhibitors (AID 588742). In kind it is functional. Particulars: Chlorocebus sabaeus.
In data set [7] the test system is Vero. The experiment in a line: cells. In kind it is functional, cell-based. Particulars: Chlorocebus sabaeus.
For data set [8], the system named is Vero. The experiment in a line: cells. In kind it is functional. Particulars: Chlorocebus sabaeus.
Data set [9] has as its target T2, Cytochrome P450 1A2 (Homo sapiens, UniProt P05177).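 Note: PubChem cytochrome P450 panel assay, CYP1A2 panel member.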
T2 sequence (P05177 whole entry): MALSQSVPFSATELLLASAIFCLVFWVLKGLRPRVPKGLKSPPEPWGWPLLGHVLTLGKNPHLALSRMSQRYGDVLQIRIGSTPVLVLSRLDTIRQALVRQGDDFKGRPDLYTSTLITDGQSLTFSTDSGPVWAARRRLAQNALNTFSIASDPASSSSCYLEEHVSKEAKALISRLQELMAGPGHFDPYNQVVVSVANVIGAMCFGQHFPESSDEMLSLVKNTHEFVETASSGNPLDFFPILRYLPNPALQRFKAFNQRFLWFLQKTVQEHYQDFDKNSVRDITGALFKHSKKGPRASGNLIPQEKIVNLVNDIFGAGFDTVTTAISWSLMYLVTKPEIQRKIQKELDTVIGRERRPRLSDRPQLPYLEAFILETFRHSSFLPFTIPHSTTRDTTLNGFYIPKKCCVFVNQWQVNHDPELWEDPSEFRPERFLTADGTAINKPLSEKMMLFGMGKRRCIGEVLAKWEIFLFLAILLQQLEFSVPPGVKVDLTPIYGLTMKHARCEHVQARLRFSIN

Data set [10] deals with Cytochrome P450 2C9 (Homo sapiens, UniProt P11712).
Data set [11] deals with T3, Carboxy-terminal domain RNA polymerase II polypeptide A small phosphatase 1 (Homo sapiens, UniProt Q9GZU7).
T3 sequence (Q9GZU7 whole entry): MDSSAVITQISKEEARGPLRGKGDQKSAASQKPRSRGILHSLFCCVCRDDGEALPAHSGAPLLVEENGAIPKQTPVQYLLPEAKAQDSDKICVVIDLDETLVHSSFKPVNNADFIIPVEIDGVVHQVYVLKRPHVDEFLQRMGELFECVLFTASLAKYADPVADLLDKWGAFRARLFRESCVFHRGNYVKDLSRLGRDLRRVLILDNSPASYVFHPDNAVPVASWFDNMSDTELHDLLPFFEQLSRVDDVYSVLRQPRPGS
Kind of data set: inhibitors of CTDSP1, concentration-response testing, biochemical assay, absorbance-based, actives from ultra-high-throughput screening (AID 540297). In kind it is functional.

The target of data set [12] is Troponin, cardiac muscle (Homo sapiens, UniProt P19429+P45379+P63316). The experiment in a line: Fluorescence-based biochemical high throughput dose response assay for activators of the calcium sensitivity of cardiac Regulated Thin Filaments (RTF). [Related pubchem assays (depositor defined):AID493008, AID493018, AID504382, AID504383]. Type of data set: protein-complex assay.

Data set [13] deals with Cytochrome P450 2D6 (Homo sapiens, UniProt P10635).
Data set [14] can be described thus: NIH-3T3 fibroblast cytotoxicity, dose response, cytotoxicity control, cell-based, fluorescence, Alamar Blue, secondary assay (AID 2327).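 Note: NIH-3T3 mouse fibroblasts cultured with fluconazole at 8 µg/mL.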 In kind it is functional.
In data set [15] the test system is INS1. Kind of data set: beta cell apoptosis inhibitors, cytokine rescue, dose response, luminescence, retest (AID 449756).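 Note: cell death triggered by IL-1 beta plus TNF-alpha plus IFN-gamma mixture; protective hits raise ATP signal compared with cytokine alone wells.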 Type of data set: functional, cell-based. Particulars: Rattus norvegicus.
A short description of data set [16]: C. albicans growth with fluconazole, confirmation, fluorescence, retest (AID 2467). In kind it is functional, cell-based.
In data set [17] the target is Heat shock protein HSP 90-alpha (Homo sapiens, UniProt P07900). In kind it is functional, organism-based.
Data set [18] has as its target T4, Microphthalmia-associated transcription factor (Homo sapiens, UniProt O75030).
T4 sequence (O75030 whole entry): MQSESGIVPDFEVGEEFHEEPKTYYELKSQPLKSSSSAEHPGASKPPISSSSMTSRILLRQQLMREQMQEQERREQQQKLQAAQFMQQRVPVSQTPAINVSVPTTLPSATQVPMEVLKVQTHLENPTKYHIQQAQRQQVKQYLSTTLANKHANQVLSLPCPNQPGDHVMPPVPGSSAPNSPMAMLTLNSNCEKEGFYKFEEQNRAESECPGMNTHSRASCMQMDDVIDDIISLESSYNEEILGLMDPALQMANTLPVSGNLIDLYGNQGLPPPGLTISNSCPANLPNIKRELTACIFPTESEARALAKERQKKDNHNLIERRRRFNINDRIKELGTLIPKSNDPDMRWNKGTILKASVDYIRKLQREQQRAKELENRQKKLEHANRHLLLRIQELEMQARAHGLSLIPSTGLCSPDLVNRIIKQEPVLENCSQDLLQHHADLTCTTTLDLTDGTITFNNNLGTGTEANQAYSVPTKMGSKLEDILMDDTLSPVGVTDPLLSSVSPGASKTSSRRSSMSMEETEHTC
Kind of data set: TRPM1 promoter luciferase signal decrease, dose response, MITF inhibitor project, cell-based, SK-MEL-5, cherry-picked, set 3 (AID 493073).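 Note: SK-MEL-5 melanoma cells with luciferase driven by the MITF target TRPM1 promoter.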 In kind it is functional.

Chain of DNA dC->dU-editing enzyme APOBEC-3G (Q9HC16 whole entry): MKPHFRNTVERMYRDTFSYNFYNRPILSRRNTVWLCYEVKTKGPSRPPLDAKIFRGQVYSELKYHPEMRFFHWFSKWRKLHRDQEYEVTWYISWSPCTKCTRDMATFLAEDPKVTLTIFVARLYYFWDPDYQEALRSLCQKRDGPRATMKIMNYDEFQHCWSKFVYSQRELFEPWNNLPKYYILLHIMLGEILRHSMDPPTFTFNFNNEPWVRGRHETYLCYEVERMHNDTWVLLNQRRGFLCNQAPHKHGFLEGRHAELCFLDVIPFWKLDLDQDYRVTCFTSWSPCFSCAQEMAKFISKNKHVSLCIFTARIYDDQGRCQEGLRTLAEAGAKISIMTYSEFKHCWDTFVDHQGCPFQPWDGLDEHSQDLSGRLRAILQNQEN
Chain of Cytochrome P450 2C9 (P11712 whole entry, the tested form may be a part): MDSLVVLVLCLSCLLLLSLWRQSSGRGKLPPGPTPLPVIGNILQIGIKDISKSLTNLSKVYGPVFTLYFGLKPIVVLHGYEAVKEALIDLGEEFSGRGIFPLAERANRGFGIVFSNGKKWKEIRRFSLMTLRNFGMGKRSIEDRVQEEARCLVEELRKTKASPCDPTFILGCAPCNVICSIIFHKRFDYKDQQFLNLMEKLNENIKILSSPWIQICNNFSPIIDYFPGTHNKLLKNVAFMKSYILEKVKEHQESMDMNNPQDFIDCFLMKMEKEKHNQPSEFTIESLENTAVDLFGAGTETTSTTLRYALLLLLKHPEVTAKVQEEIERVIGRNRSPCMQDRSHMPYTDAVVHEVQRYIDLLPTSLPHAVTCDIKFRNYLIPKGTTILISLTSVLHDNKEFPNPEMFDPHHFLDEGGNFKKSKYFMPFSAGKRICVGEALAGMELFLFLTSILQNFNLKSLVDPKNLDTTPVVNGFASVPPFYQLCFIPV
Chain of Genome polyprotein (P29990 2492-3391 limits assumed): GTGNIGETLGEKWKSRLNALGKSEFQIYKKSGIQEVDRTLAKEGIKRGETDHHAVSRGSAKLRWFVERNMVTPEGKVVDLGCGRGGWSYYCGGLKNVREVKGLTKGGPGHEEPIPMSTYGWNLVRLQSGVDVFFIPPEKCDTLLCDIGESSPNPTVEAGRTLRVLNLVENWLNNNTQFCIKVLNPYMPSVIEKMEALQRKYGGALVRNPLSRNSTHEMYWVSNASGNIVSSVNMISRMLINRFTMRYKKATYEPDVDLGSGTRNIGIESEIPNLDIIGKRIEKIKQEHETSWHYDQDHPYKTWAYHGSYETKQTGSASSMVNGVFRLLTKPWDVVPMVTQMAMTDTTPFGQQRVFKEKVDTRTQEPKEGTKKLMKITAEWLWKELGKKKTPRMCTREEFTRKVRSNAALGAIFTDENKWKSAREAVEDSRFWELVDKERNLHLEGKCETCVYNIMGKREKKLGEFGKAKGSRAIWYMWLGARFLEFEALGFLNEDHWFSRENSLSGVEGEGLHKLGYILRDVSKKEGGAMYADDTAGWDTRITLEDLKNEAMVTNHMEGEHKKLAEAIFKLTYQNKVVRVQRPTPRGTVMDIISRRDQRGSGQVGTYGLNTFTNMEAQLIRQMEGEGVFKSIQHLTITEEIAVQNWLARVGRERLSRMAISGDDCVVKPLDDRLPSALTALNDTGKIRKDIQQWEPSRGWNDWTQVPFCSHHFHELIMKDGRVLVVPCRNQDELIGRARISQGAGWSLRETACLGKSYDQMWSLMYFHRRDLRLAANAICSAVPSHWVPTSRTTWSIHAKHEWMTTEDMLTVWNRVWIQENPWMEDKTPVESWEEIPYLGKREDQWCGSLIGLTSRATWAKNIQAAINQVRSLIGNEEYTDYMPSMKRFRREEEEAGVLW
Chain of Large T antigen (P03070 whole entry): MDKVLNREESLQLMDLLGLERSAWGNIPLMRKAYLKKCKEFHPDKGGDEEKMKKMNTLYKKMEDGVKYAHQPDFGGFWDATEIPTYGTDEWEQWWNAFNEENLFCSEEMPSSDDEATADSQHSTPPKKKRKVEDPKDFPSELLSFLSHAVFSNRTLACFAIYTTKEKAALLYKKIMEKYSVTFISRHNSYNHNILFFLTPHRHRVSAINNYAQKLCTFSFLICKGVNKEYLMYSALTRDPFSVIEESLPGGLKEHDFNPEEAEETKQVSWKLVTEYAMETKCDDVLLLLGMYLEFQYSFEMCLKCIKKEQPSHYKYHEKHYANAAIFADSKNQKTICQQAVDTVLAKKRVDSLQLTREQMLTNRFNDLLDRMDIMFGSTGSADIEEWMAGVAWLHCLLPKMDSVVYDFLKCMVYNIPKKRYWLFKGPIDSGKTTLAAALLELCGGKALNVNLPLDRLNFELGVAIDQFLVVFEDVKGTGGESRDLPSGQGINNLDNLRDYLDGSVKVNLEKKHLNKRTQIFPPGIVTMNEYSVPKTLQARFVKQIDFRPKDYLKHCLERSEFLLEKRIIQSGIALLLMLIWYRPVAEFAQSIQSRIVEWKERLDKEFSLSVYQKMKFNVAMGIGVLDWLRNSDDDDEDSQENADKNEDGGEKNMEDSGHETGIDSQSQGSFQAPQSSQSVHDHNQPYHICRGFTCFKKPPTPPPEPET
Chain of Cytochrome P450 2D6 (P10635 whole entry): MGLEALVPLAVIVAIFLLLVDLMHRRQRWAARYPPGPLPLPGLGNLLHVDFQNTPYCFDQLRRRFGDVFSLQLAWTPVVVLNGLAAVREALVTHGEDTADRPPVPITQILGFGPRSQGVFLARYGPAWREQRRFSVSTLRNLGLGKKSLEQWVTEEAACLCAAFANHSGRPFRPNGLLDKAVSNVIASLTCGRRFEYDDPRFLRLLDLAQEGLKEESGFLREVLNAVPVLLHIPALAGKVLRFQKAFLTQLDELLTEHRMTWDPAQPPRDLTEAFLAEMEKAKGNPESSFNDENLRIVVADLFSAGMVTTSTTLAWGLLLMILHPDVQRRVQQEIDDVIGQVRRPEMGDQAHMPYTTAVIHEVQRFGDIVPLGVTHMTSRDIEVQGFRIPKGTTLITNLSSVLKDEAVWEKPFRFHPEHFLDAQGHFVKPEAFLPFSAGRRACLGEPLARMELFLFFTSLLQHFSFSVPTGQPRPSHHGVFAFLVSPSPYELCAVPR
Chain of Eukaryotic translation initiation factor 4E (P63073 whole entry): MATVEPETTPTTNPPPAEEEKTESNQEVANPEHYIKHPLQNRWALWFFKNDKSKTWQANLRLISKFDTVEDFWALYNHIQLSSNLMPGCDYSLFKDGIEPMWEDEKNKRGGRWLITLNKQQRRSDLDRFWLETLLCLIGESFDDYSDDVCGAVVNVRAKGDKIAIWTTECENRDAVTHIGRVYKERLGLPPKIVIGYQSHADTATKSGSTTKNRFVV

For the compound `CCOC(=O)c1ccc2c(c1)nc(SCC(=O)c1cc3ccccc3o1)n2CC`, the values for the IC50 in data set [1] and in data set [2] were > 64 µM (inactive) and > 100 µM (inactive), respectively.

Regarding `Cc1ccc(C2(C)NC(=O)N(CC(=O)Nc3nc(-c4ccccn4)cs3)C2=O)cc1` (configuration not stated), the IC50 in data set [3] was 25.6 µM (active); in data set [4], > 100 µM (active).

Take `c1coc(-c2nc3nc4ccccc4n3nc2-c2ccco2)c1`: in data set [5], the IC50 is 99.3 µM (active). Also, the CC50 in data set [6] was > 40 µM (active).

As to `Sc1nnc(-c2ccccn2)n1/N=C/c1ccccc1`, the IC50 in [3] is 9.26 µM (active).

Take `COC(COC(N)=O)C1=C(N2CC2)C(=O)C(C)=C(N2CC2)C1=O` (configuration not stated) [CARBOQUONE]: the IC50 in data set [7] is > 25 µM (active). Also, the CC50 in data set [8] was 0.3 µM (active).

For `COc1cccc(Cn2c(=O)c(-c3cccs3)nc3cnc(N4CCN(C)CC4)nc32)c1`, the values for the AC50 in [9] and in [10] were 5.01 µM (inconclusive) and “inconclusive”, respectively.

As for `c1ccc2c(c1)nc(N1CCCCCC1)c1ccccc12`, the IC50 in data set [11] was 17.4 µM (active).

Regarding `COc1ccccc1/C=C/C=C1\Oc2c(ccc(O)c2CN2CCN(CCO)CC2)C1=O`, the EC50 in data set [12] was 1.37 µM (active).

In the case of `CN(C)c1ccc(-c2cc(Nc3ccc(F)cc3)ncn2)cc1`, the AC50 in data set [13] was 39.8 µM (inconclusive); in data set [10], “inconclusive”.

As to `Cc1ccc(S(=O)(=O)CC(O)CN2CCCC2=O)cc1` (configuration not stated), the AC50 entry in data set [10] is given as “inconclusive”.

For `Cc1cccc(C(=O)Nc2ccc(C(=O)N/N=C/c3ccco3)cc2)c1`, the IC50 in data set [11] was 4.79 µM (active).

Consider `S=C(Nc1cc(Cl)ccc1Oc1ccccc1)N1CCN(c2ccccn2)CC1`, for which the EC50 in [12] is > 71.4 µM (inactive).

As for `CCCCOc1ccc(C(=O)NNC(=S)NC(=O)CC)cc1`, the EC50 was > 160 µM (inactive) in [14] and 0.621 µM (active) in data set [16]. In addition, the AC50 in data set [15] is 3.17 µM (active); in [17], 4.33 µM (active). Further, the IC50 in data set [7] was 5.78 µM (active). Further, the CC50 in data set [8] was 13.2 µM (active).

As for `CC(NC(=O)C12CC3CC(CC(C3)C1)C2)C(=O)NN=Cc1ccc([N+](=O)[O-])o1` (configuration not stated), the AC50 in data set [18] is 7.79 µM (active).

Consider `O=C1NN=C(CSc2nnc(S)s2)CS1`, for which the IC50 in data set [3] was 9.78 µM (active).

As for `COc1ccc(OC)c(N2C(=O)/C(=C/NCCN3CCNCC3)C(=O)NC2=S)c1`, the EC50 in data set [12] was > 71.5 µM (inactive).
